Data as given in US7951816B2, “Compound containing basic group and use thereof” (Ono Pharmaceutical Co., Ltd., priority 2004, dated 2011).

Assays:
CXCR4 = molecular target: T1, CXCR4 (Homo sapiens, UniProt P61073); assay: Study for inhibition of binding human SDF-1 to CEM cells (125I-SDF-1); settings: 125I-SDF-1 binding to CEM cells
T1 construct: a human T cell strain in which CXCR4 is known to be expressed; endogenous in cells; host or cells: CEM cells (human T cell line), whole cells
Excerpt: Specifically, as a system of screening a compound that inhibits the binding between SDF-1 and CXCR4, for example a system of measuring the binding between iodine-labeled SDF-1 and a human T cell strain in which CXCR4 is known to be expressed is operable. The identical idea is possible since macrophage (R5) HIV and RANTES, MIP-1α, and MIP-1β all bind to CCR5.
Study for Inhibition of Binding Human SDF-1 to CEM Cells
To human T cell strain CEM cells in a binding buffer (containing HEPES and BSA), the test compound and ^125I-SDF-1 (NEN) were added and the mixture was incubated at 4° C. for 60 minutes. The reacted CEM cells were rapidly filtrated with a GF/B membrane filter plate (Packard) to adsorb. The plate was washed with PBS three times and then dried. Microscint+20 (Packard) was added thereto. An amount of the radioactivity bound to the CEM cells was measured using Top Count (Packard) and inhibition (%) of the test compound was calculated according to the following equation: Inhibition={(Et−Ea)/(Et−Ec)}×100
Et: amount of radioactivity when the test compound is not added,
Ec: amount of radioactivity when non-radioactive SDF-1 (Pepro Tech) is added in an amount of 1000 times as much as ^125I-SDF-1 as a test compound, and
Ea: amount of radioactivity when the test compound is added.

[1] = Influence on blood pressure and heart rate in urethane-anesthetized rat, intravenous cumulative dosing; format: in vivo
Excerpt: Measuring of Influence of a Compound of the Present Invention on Blood Pressure and Heart Rate
A rat was anesthetized with urethane (1.2 g/kg subcutaneous administration). After neck midline dissection, a catheter for measuring blood pressure was inserted into a right common carotid artery. Then, after dissecting inguinal region, a catheter for chemical injection was inserted into a femoral vein and fixed. A catheter for measurement of blood pressure was connected to a pressure transducer and then the pressure waveform was recorded on a thermal writing pen recorder through an amplifier for strain compression (AP-641G (manufactured by NIHON KOHDEN CORPORATION)). In this case, regarding a heart rate, a value through an cardiotachometer (AT-601G (manufactured by NIHON KOHDEN CORPORATION)) using the pressure waveform obtained from the amplifier for strain compression as a trigger was recorded on a thermal writing pen recorder. The test compound was dissolved in a 10% solubilizing agent/physiological saline solution (volume ratio of polyoxyethylene hydroxystearate:propylene glycol:physiological saline=7:3:190) so as to adjust the concentration to 0.1, 0.3, 1, 3 or 10 mg/mL to prepare solutions. Each solution was intravenous administered at 1 mL/Kg through the […] over about 10 seconds. Accumulative administration of stepwise increasing of a dosage was carried out to an individual.

T1 sequence (P61073 whole entry): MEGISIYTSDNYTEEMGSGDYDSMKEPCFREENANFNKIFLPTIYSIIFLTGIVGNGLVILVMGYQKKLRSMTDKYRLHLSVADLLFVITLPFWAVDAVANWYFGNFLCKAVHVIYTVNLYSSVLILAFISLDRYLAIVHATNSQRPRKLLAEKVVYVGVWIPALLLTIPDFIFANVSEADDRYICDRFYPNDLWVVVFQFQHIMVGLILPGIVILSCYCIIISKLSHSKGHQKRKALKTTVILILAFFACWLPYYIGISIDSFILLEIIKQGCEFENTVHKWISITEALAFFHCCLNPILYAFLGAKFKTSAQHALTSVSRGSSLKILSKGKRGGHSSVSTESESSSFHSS

| Structure (SMILES) | IC50 (CXCR4) | effect of decreasing blood pressure ([1]; 3 mg/kg or less) | rate of increase in the heart rate ([1]; 10 mg/kg) | influence on the heart rate ([1]; low dosage) |
| --- | --- | --- | --- | --- |
| CCCN(CCC)CCCCNCc1ccc(C(=O)N(Cc2ncc[nH]2)Cc2ncc[nH]2)cc1 [Compound 10, 4-({[4-(dipropylamino)butyl]amino}methyl)-N,N-bis(1H-imidazol-2-ylmethyl)benzamide] | 27 nM |  |  |  |
| CCCN(CCC)CCCCNCc1ccc(CN(Cc2ncc[nH]2)C(=O)c2ncc[nH]2)cc1 [Compound 19, N-[4-({[4-(dipropylamino)butyl]amino}methyl)benzyl]-N-(1H-imidazol-2-ylmethyl)-1H-imidazole-2-carboxamide] |  | not recognized | 2% | no influence on the heart rate |
